US12643879B2, “Functionalized heterocyclic compounds as modulators of stimulator of interferon genes (STING)” (RYVU THERAPEUTICS S.A., priority 2019, dated 2026)
Like-named read-outs stand apart in the source and are kept apart here.

Legend:
human STING = human STING (Homo sapiens, UniProt Q86WV6); assay: Fluorescence Thermal Shift assay (binding to STING); conditions: STING 0.1 mg/mL, SyproOrange, 25 to 99° C.
Method: Compounds, constructs and conjugates of the present invention were tested for binding to human STING in Fluorescence Thermal Shift assay. STING was preincubated with the compounds for 20 minutes in 50 mM Hepes, 150 mM NaCl, pH 7.5 in 15 or 16 μl volume, following by adding 4 μl of SyproOrange dye dilution (ThermoFisher, cat no. S-6651). Final STING concentration was 0.1 mg/mL. Thermal unfolding was performed in Real-Time PCR QuantStudio 6 Flex System (Applied Biosystems), from 25 to 99° C., with continuous ramp mode and ramp rate 0.033° C./s. The data were analyzed using Protein Thermal Shift Software (ThermoFisher).

[1] = test system: interferon regulatory factor (IRF) pathway in THP-1 dual cells; assay: THP-1 Dual reporter assay, IRF pathway (luciferase); assay type: cell-based; conditions: for EC50: Homo sapiens, THP1-Dual, read-out: THP1 Dual EC50 (μM) IRF
In short: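 Dual-reporter THP-1 cells treated 18 h with STING agonist; secreted luciferase (IRF) and SEAP (NF-κB) quantified from medium by luminescence and colorimetric absorbance, respectively.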

[2] = test system: NF-κB pathway in THP-1 dual cells; assay: THP-1 Dual reporter assay, NF-κB pathway (SEAP); assay type: cell-based; conditions: for EC50: Homo sapiens, THP1-Dual, read-out: THP1 Dual EC50 (μM) NFkB
In short: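 Readouts come from THP-1 dual cell supernatant taken 18 h after STING agonist addition. SEAP activity is developed in detection medium for 1–2 h at 37° C and read at 630/655 nm; luciferase is read by luminescence immediately after reagent addition.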

[3] = 18 h stimulation, absorbance at 630 or 655 nm

Chain of human STING (Q86WV6 whole entry H232R): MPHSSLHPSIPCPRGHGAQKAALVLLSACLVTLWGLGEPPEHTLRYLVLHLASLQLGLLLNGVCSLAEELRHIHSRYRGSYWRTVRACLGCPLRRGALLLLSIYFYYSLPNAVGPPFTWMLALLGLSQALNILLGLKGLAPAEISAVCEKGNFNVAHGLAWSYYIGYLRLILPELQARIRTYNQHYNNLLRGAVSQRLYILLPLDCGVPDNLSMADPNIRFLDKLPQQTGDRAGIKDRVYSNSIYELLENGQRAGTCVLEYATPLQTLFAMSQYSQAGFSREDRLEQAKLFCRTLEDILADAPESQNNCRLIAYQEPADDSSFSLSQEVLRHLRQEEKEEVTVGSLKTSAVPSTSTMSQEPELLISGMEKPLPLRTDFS

Compound	hSTING FTS binding assay (ΔT C. °) (human STING)	EC50 ([1]; 18 h stimulation, luminescence)	EC50 [2, 3]	THP1 Dual EC50 (μM) IRF ([1]; 18 h stimulation, luminescence)	THP1 Dual EC50 (μM) NFkB [2, 3]	EC50 ([1]; 18 h)	EC50 ([2]; 18 h)
Cc1ccc(N2CCC[C@H](N(Cc3ccnc(C)c3)Cc3cn(C4CC4)c4cc(N5CCC(O)CC5)c(F)cc4c3=O)C2)cn1.Cl [Example 32, 1-cyclopropyl-6-fluoro-7-(4-hydroxypiperidin-1-yl)-3-({[(3S)-1-(6-methylpyridin-3-yl)piperidin-3-yl][(2-methylpyridin-4-yl)methyl]amino}methyl)-1,4-dihydroquinolin-4-one hydrochloride]	+++ (+++=ΔTm ≥20° C.)	< 1 µM	< 1 µM				
Cc1ccc(N2CCC[C@H](N(Cc3ccnc(C)c3)Cc3cn(C4CC4)c4nc(N5CC[C@@H](O)C5)c(F)cc4c3=O)C2)cn1.Cl [Example 37, 1-cyclopropyl-6-fluoro-7-[(3R)-3-hydroxypyrrolidin-1-yl]-3-({[(3S)-1-(6-methylpyridin-3-yl)piperidin-3-yl][(2-methylpyridin-4-yl)methyl]amino}methyl)-1,4-dihydro-1,8-naphthyridin-4-one hydrochloride]	+++ (+++=ΔTm ≥20° C.)	< 1 µM	< 1 µM				
Cc1cc(CN(Cc2cn(C)c3cc(N4CCC(C(=O)O)CC4)ccc3c2=O)[C@H]2CCCN(c3cccnc3)C2)ccn1 [Example 46, 1-[1-methyl-3-({[(2-methylpyridin-4-yl)methyl][(3S)-1-(pyridin-3-yl)piperidin-3-yl]amino}methyl)-4-oxo-1,4-dihydroquinolin-7-yl]piperidine-4-carboxylic acid]	++ (++=10<ΔTm <20° C.)					> 10 µM	> 10 µM
CN[C@@H]1CCN(c2cc3c(cc2F)c(=O)c(CN(Cc2ccnc(C)c2)[C@H]2CCCN(c4ccc(C)nc4)C2)cn3C2CC2)C1.Cl [Example 55, 1-Cyclopropyl-6-fluoro-7-[(3R)-3-(methylamino)pyrrolidin-1-yl]-3-({[(3S)-1-(6-methylpyridin-3-yl)piperidin-3-yl][(2-methylpyridin-4-yl)methyl]amino}methyl)-1,4-dihydroquinolin-4-one hydrochloride]	+++ (+++=ΔTm ≥20° C.)	< 1 µM	< 1 µM				
Cc1ccc(N2CCC[C@H](N(Cc3ccnc(C)c3)Cc3cn(C4CC4)c4cc(N5CCCC(C(=O)O)C5)c(F)cc4c3=O)C2)cn1 (stereo partly drawn) [Example 66, 1-[1-cyclopropyl-6-fluoro-3-({[(3S)-1-(6-methylpyridin-3-yl)piperidin-3-yl][(2-methylpyridin-4-yl)methyl]amino}methyl)-4-oxo-1,4-dihydroquinolin-7-yl]piperidine-3-carboxylic acid]	+++ (+++=ΔTm ≥20° C.)	1 to 10 µM	1 to 10 µM				
Cc1ccc(N2CCC[C@H](N(Cc3ccnc(C)c3)Cc3cn(C4CC4)c4cc(N5CCC(C(=O)O)CC5)c(F)cc4c3=O)C2)cn1 [Example 67, 1-[1-cyclopropyl-6-fluoro-3-({[(3S)-1-(6-methylpyridin-3-yl)piperidin-3-yl][(2-methylpyridin-4-yl)methyl]amino}methyl)-4-oxo-1,4-dihydroquinolin-7-yl]piperidine-4-carboxylic acid]	+++ (+++=ΔTm ≥20° C.)	1 to 10 µM	1 to 10 µM				
Cc1ccc(N2CCC[C@H](N(Cc3ccnc(C)c3)Cc3cn(C4CC4)c4cc(N5CCC6NCCC6C5)c(F)cc4c3=O)C2)cn1 (stereo partly drawn) [Example 68, 1-cyclopropyl-6-fluoro-3-({[(3S)-1-(6-methylpyridin-3-yl)piperidin-3-yl][(2-methylpyridin-4-yl)methyl]amino}methyl)-7-{octahydro-1H-pyrrolo[3,2-c]pyridin-5-yl}-1,4-dihydroquinolin-4-one]	+++ (+++=ΔTm ≥20° C.)	< 1 µM	< 1 µM				

Further lines, with some results ahead:

hSTING FTS binding assay (ΔT C. °) (human STING)	EC50 ([1]; 18 h stimulation, luminescence)	EC50 [2, 3]	THP1 Dual EC50 (μM) IRF ([1]; 18 h stimulation, luminescence)	THP1 Dual EC50 (μM) NFkB [2, 3]	Compound	EC50 ([1]; 18 h)	EC50 ([2]; 18 h)
+++ (+++=ΔTm ≥20° C.)	< 1 µM	< 1 µM			Cc1ccc(N2CCC[C@H](N(Cc3ccnc(C)c3)Cc3cn(C4CC4)c4cc(N5CCC(F)(CN)C5)c(F)cc4c3=O)C2)cn1 (stereo partly drawn) [Example 30, 7-[3-(aminomethyl)-3-fluoropyrrolidin-1-yl]-1-cyclopropyl-6-fluoro-3-({[(3S)-1-(6-methylpyridin-3-yl)piperidin-3-yl][(2-methylpyridin-4-yl)methyl]amino}methyl)-1,4-dihydroquinolin-4-one]		
+++ (+++=ΔTm ≥20° C.)	< 1 µM	< 1 µM			CNC1CCN(c2cc3c(cc2F)c(=O)c(CN(Cc2ccnc(C)c2)[C@H]2CCCN(c4ccc(C)nc4)C2)cn3C2CC2)C1 (stereo partly drawn) [Example 33, 1-cyclopropyl-6-fluoro-7-[3-(methylamino)pyrrolidin-1-yl]-3-({[(3S)-1-(6-methylpyridin-3-yl)piperidin-3-yl][(2-methylpyridin-4-yl)methyl]amino}methyl)-1,4-dihydroquinolin-4-one]		
+++ (+++=ΔTm ≥20° C.)	< 1 µM	< 1 µM			Cc1cc(CN(Cc2cn(C(C)C)c3ccccc3c2=O)[C@H]2CCCN(c3ccc(N)nc3)C2)ccn1.Cl [Example 34, 3-({[(3S)-1-(6-aminopyridin-3-yl)piperidin-3-yl][(2-methylpyridinyl-4-yl)methyl]amino}methyl)-1-(propan-2-yl)-1,4-dihydroquinolin-4-one hydrochloride]		
+++ (+++=ΔTm ≥20° C.)	< 1 µM	< 1 µM			Cc1cc(CN(Cc2cn(C3COC3)c3ccccc3c2=O)[C@H]2CCCN(c3ccc(N)nc3)C2)ccn1 [Example 35, 3-({[(3S)-1-(6-aminopyridin-3-yl)piperidin-3-yl][(2-methylpyridin-4-yl)methyl]amino}methyl)-1-(oxetan-3-yl)-1,4-dihydroquinolin-4-one]		
+++ (+++=ΔTm ≥20° C.)			+ + +	+ + +	Cc1ccc(N2CCC[C@H](N(Cc3ccnc(C)c3)Cc3cn(C4CC4)c4cc(OCCO)c(F)cc4c3=O)C2)cn1 [Example 47, 1-Cyclopropyl-6-fluoro-7-(2-hydroxyethoxy)-3-({[(3S)-1-(6-methylpyridin-3-yl)piperidin-3-yl][(2-methylpyridin-4-yl)methyl]amino}methyl)-1,4-dihydroquinolin-4-one]		
+ (+=ΔTm ≤10° C.)	> 10 µM	> 10 µM			Cc1cc(CN(Cc2cn(C(C)C)c3cc(N4CC[C@@H](O)C4)ccc3c2=O)[C@H]2CCCN(c3ccnnc3)C2)ccn1 [Example 49, 7-[(3R)-3-hydroxypyrrolidin-1-yl]-3-({[(2-methylpyridin-4-yl)methyl][(3S)-1-(pyridazin-4-yl)piperidin-3-yl]amino}methyl)-1-(propan-2-yl)-1,4-dihydroquinolin-4-one]		
+++ (+++=ΔTm ≥20° C.)	< 1 µM	< 1 µM			CN[C@H]1CCN(c2cc3c(cc2F)c(=O)c(CN(Cc2ccnc(C)c2)[C@H]2CCCN(c4ccc(C)nc4)C2)cn3C2CC2)C1.Cl [Example 58, 1-cyclopropyl-6-fluoro-7-[(3S)-3-(methylamino)pyrrolidin-1-yl]-3-({[(3S)-1-(6-methylpyridin-3-yl)piperidin-3-yl][(2-methylpyridin-4-yl)methyl]amino}methyl)-1,4-dihydroquinolin-4-one hydrochloride]		
